What was measured:
Format in all cases: functional
Mus musculus [1] = experiment: Anxiolytic activity in ip dosed male albino CF-1 mouse assessed as decrease in traction reflex
Mus musculus [2] = experiment: Anxiolytic activity in ip dosed male albino CF-1 mouse assessed as inhibition of thiosemicarbazide -induced lethality; details: CF-1, ip
Mus musculus [3] = experiment: Anxiolytic activity in ip dosed male albino CF-1 mouse assessed as inhibition of nicotine-induced tonic extensor convulsions
Mus musculus [4] = experiment: Anxiolytic activity in ip dosed male albino CF-1 mouse assessed as inhibition of electroshock-induced convulsions; details: CF-1, ip
Mus musculus [5] = experiment: Anxiolytic activity in ip dosed male albino CF-1 mouse assessed as decrease in dish reflex
Mus musculus [6] = experiment: Anxiolytic activity in ip dosed male albino CF-1 mouse assessed as inhibition of pentylenetetrazole-induced clonic convulsions; details: CF-1, ip
Mus musculus [7] = experiment: Anxiolytic activity in ip dosed male albino CF-1 mouse assessed as inhibition of strychnine-induced lethality; details: CF-1, ip
Mus musculus [8] = experiment: Potentiation of ethanol-induced anxiolytic activity in ip dosed male albino CF-1 mouse; details: CF-1, ip
Mus musculus [9] = experiment: Anxiolytic activity in ip dosed male albino CF-1 mouse assessed as inhibition of nicotine-induced death
[10] = Mus musculus, CF-1, ip, read-out: ED50

Compound	ED50 (Mus musculus [1]; [10]) [mg/kg]	ED50 (Mus musculus [2]) [mg/kg]	ED50 (Mus musculus [3]; [10]) [mg/kg]	ED50 (Mus musculus [4]) [mg/kg]	ED50 (Mus musculus [5]; [10]) [mg/kg]	ED50 (Mus musculus [6]) [mg/kg]	ED50 (Mus musculus [7]) [mg/kg]	ED50 (Mus musculus [8]) [mg/kg]	ED50 (Mus musculus [9]; [10]) [mg/kg]	ED50 (Mus musculus [1]) [mg/kg]	ED50 (Mus musculus [3]) [mg/kg]	ED50 (Mus musculus [5]) [mg/kg]	ED50 (Mus musculus [9]) [mg/kg]
Cc1nnc(CN)n1-c1ccc(Cl)cc1C(O)c1ccccc1 (stereo not given)	9	1.2	1.6	71	2.8	4	28	3.1	1.6	–	–	–	–
Cc1nnc(CN2CCCC2)n1-c1ccc(Cl)cc1Cc1ccccc1	> 100	–	36	–	40	> 100	–	–	36	–	–	–	–
CCN(CC)CC(=O)Nc1ccc(Cl)cc1C(=O)c1ccccc1	> 200	–	23	–	100	140	–	–	28	–	–	–	–
CNCc1nnc(C)n1-c1ccc(Cl)cc1C(=O)c1ccccc1	2.5	0.3	0.1	63	0.8	1.1	3.2	2	0.1	–	–	–	–
CN(C)Cc1nccn1-c1ccc(Cl)cc1C(=O)c1ccccc1Cl	11	1.1	1	–	2.2	1.8	> 50	2.5	1.2	–	–	–	–
CNCc1nn(C)c(=O)n1-c1ccc(Cl)cc1C(=O)c1ccccc1.Cl	12.5	–	0.45	–	4	5.6	–	–	0.56	–	–	–	–
Cc1nnc(CN2CCCC2)n1-c1ccc(Cl)cc1C(O)c1ccccc1 (stereo in doubt; 20)	–	–	–	–	–	–	–	–	–	>25	8	16	8
Cc1nc(CN(C)C)n(-c2ccc(Cl)cc2C(=O)c2ccccc2Cl)c1CO	18	2	1	100	3.5	1.8	> 25	18	1	–	–	–	–
CN(C)Cc1nnc(-c2ccncc2)n1-c1ccc(Cl)cc1C(=O)c1ccccc1Cl	> 100	4.4	11	> 100	20	–	> 50	–	11	–	–	–	–
CCNCc1nnc(C)n1-c1ccc(Cl)cc1C(=O)c1ccccc1	2.5	0.6	0.2	45	1	0.5	45	0.6	0.2	–	–	–	–
CN(C)Cc1nnc(-c2ccco2)n1-c1ccc(Cl)cc1C(=O)c1ccccc1	71	8	16	> 100	28	23	45	25	16	–	–	–	–
Cc1nnc(CN(C)C)n1-c1ccccc1C(=O)c1ccccc1Cl	> 100	3.6	5	> 100	22	7	> 50	> 100	5	–	–	–	–
CN(C)Cc1nn(CO)c(=O)n1-c1ccc(Cl)cc1C(=O)c1ccccc1Cl	6.3	0.23	0.13	> 100	1	0.32	12.5	2	0.13	–	–	–	–
Cc1nnc2n1-c1ccc(Cl)cc1C(c1ccccc1)=NC2 [ALPRAZOLAM]	0.6	0.16	0.02	25.5	0.056	0.2	0.3	0.16	0.02	–	–	–	–
Cc1nnc2n1-c1ccc(Cl)cc1C(c1ccccc1Cl)=NC2 [TRIAZOLAM]	0.6	0.028	0.013	32	0.028	0.03	0.23	0.63	0.014	–	–	–	–
Cc1nnc(CN(C)C)n1-c1ccc(Cl)cc1C(=O)c1ccccc1	5	0.3	0.5	45	2.2	1.1	5	1.1	0.5	–	–	–	–
CN(C)CCn1nc(CN(C)C)n(-c2ccc(Cl)cc2C(=O)c2ccccc2)c1=O	100	9	6.3	> 100	28	18	> 100	80	6.3	–	–	–	–
Cc1nnc(CN2CCCC2)n1-c1ccc(Cl)cc1C(O)c1ccccc1 (stereo in doubt; 21)	–	–	–	–	–	14	–	–	–	>200	32	5	32
CN1C(=O)CN=C(c2ccccc2)c2cc(Cl)ccc21 [DIAZEPAM]	5	0.2	0.11	20	0.31	0.8	3.6	1	0.11	–	–	–	–
Cc1nnc(CN2CCCC2)n1-c1ccc(Cl)cc1C(=O)c1ccccc1Cl	18	1.1	1.3	> 100	1	4	1	6	1.8	–	–	–	–
Cc1nnc(CN(C)C)n1-c1ccc(Cl)cc1C(=O)c1ccccc1Cl	3.2	0.02	0.14	50	0.25	0.28	11	0.63	0.14	–	–	–	–
CN(C)Cc1nnc(C2CC2)n1-c1ccc(Cl)cc1C(=O)c1ccccc1Cl	7.1	0.4	0.6	79	1.1	1	5	2.2	0.6	–	–	–	–
Cc1nnc(CN2CCCC2)n1-c1ccc(Cl)cc1C(=O)c1ccccc1	4	2	0.4	89	1.3	2	4	1.8	0.4	–	–	–	–
NCC(=O)Nc1ccc(Cl)cc1C(=O)c1ccccc1	32	1.6	0.25	29	5.6	–	22	2.5	0.25	–	–	–	–
Cc1nnc(CN2CCOCC2)n1-c1ccc(Cl)cc1C(=O)c1ccccc1	5	0.8	0.45	> 50	1.8	1.8	6.3	4.4	0.5	–	–	–	–
